Measurements from PubChem BioAssay AID1863 (Southern Research Specialized Biocontainment Screening …, 2009).

These compounds were tested on S. Typhimurium PhoP-regulated promoter GFP reporter, 4 h (assay: inhibitors of PhoP regulon expression, primary screen, Salmonella Typhimurium, GFP reporter (AID 1863)).
CC[C@H]1OC(=O)[C@H](C)[C@@H](O[C@H]2C[C@@](C)(OC)[C@@H](O)[C@H](C)O2)[C@H](C)[C@@H](O[C@@H]2O[C@H](C)C[C@H](N(C)C)[C@H]2O)[C@](C)(O)C[C@@H](C)[C@@H]2N[C@@H](COCCOC)O[C@H]([C@H]2C)[C@]1(C)O gave an IC50 of 33.1 µM.
Work on CO[C@H]1C=CO[C@@]2(C)Oc3c(C)c(O)c4c(O)c(c(C=NN5CCN(C)CC5)c(O)c4c3C2=O)NC(=O)C(C)=CC=C[C@H](C)[C@H](O)[C@@H](C)[C@@H](O)[C@@H](C)[C@H](OC(C)=O)[C@@H]1C yielded an IC50 of 6.31 µM.
Cc1ccc(Nc2cc(C)nn2-c2nc(C)cc(=O)[nH]2)cc1 showed an IC50 of 32.4 µM.
CC[C@H]1OC(=O)C[C@@H](O)[C@H](C)[C@@H](O[C@@H]2O[C@H](C)C[C@H](N(C)C)[C@H]2O)[C@@H](CC=O)C[C@@H](C)C(=O)C=C[C@]2(C)O[C@H]2[C@@H]1C gave an IC50 of 18.2 µM.
With CCCCCCCCCCCCCCCCn1cc[n+](C)c1 the IC50 was 17.1 µM.
Cc1ccc(S(=O)(=O)Nc2cc(Cl)c(O)c3ncccc23)cc1 showed an IC50 of 52.4 µM.
Clc1cc(Br)ccc1OCCCNCc1ccccc1 showed an IC50 of 82.8 µM.
For CCn1cc(C(=O)O)c(=O)c2cc(F)c(N3CCN(C(=S)NC(=O)c4ccccc4C)CC3)cc21, the IC50 was 13.5 µM.
Work on CCCOc1ccc(C(=O)C(CCC(CNCC)C(=O)c2ccc(OCCC)cc2)CNCC)cc1 (centres undefined) yielded an IC50 of 94.6 µM.
Work on O=C(C[n+]1cc(-c2ccc(Cl)cc2)n2c1CCC2)Nc1nc(-c2ccccc2)cs1 yielded an IC50 of 84.8 µM.
For CC[n+]1c(/C=C/C=C/c2ccc(N(C)C)cc2)sc2ccccc21, the IC50 was 69.6 µM.
For CCCCCCCCCCCCCCCC[N+](C)(C)C, the IC50 was 34.3 µM.
Cc1nc(N)nc(N)c1/C=C/C(C)(C)c1ccc(Cl)cc1 gave an IC50 of 18.5 µM.
C[C@H]1c2cccc(O)c2C(O)=C2C(=O)[C@]3(O)C(O)=C(C(N)=O)C(=O)[C@@H](N(C)C)[C@@H]3[C@@H](O)[C@@H]21 gave an IC50 of 6.25 µM.
CN1CCN(c2cc3c(cc2F)c(=O)c(C(=O)O)cn3CCF)CC1 was tested, and the IC50 was 0.37 µM.
With Oc1cccc(Nc2nc(NCC3CCCO3)c3ccccc3n2)c1 (centres undefined) the IC50 was 140 µM.
Work on O=C(O)CSc1cc(NS(=O)(=O)c2cccc([N+](=O)[O-])c2)c2ccccc2c1O yielded an IC50 of 133 µM.
With CCN1/C(=C/C(C)=C/c2sc3ccccc3[n+]2CC)Sc2ccccc21 the IC50 was 17.7 µM.
With C[CH2][Hg][S]c1ccccc1C(=O)O the IC50 was 136 µM.
Work on Cc1ccc(C(=O)Sc2cccccc2=O)cc1 yielded an IC50 of 21.4 µM.
With CC(=O)c1c(C)n([O-])c2ccccc2[n+]1=O the IC50 was 119 µM.
In the case of O=C(N/N=C/c1cc([N+](=O)[O-])ccc1O)c1ccncc1, the IC50 is reported as 58.4 µM.
CNc1nc(NCc2ccccc2)c2ccccc2n1 was tested, and the IC50 was 136 µM.
O=C(C[n+]1cc(-c2ccc(Cl)c(Cl)c2)n2c1CCC2)N1c2ccccc2Sc2ccccc21 was tested, and the IC50 was 72.7 µM.
Compound NC1=NC[C@H](Cc2ccc(O)cc2)N1CCCCC1CCCCC1 has an IC50 of 57.2 µM.
COc1cc(/C=C/[N+](=O)[O-])ccc1O showed an IC50 of 82.5 µM.
In the case of COC(=O)C(C)NC(=S)N1CCN(c2c(F)cc3c(=O)c(C(=O)O)cn(C4CC4)c3c2OC)CC1C (centres undefined), the IC50 is reported as 75.4 µM.
CCCNC1=C(C)C(=O)C2=C(C1=O)C(COC(N)=O)[C@]1(OC)C3NC3CN21 (some centres undefined) showed an IC50 of 23.8 µM.
With Oc1c(CN2CCc3ccccc3C2)cc(Cl)c2cccnc12 the IC50 was 22 µM.
CCNC(=S)NNC(=O)c1ccccn1 gave an IC50 of 62.6 µM.
O=c1[nH]c2ccccc2n2c(=S)[nH]nc12 gave an IC50 of 39.4 µM.
With CN(C)[C@@H]1C(=O)C(C(N)=O)=C(O)[C@@]2(O)C(=O)C3=C(O)c4c(O)cccc4[C@@](C)(O)C3[C@H](O)C12 (some centres undefined) the IC50 was 1.74 µM.
CCCCCOc1ccc(CSC(=N)N)cc1[N+](=O)[O-] was tested, and the IC50 was 82.7 µM.
Compound Cc1[nH]n(-c2ccccc2)c(=O)c1/C=N/Nc1nncc(-c2ccccc2)n1 has an IC50 of 29.5 µM.
With CNC(=S)N1CCN(c2c(F)cc3c(=O)c(C(=O)O)cn(C4CC4)c3c2OC)CC1C (centres undefined) the IC50 was 17.6 µM.
O=c1[nH]cc(F)c(=O)[nH]1 showed an IC50 of 9.78 µM.
In the case of Oc1cccc(C=NCc2ccccc2)c1O, the IC50 is reported as 106 µM.
Compound O=[N+]([O-])c1ccc(Sc2nc3ccccc3o2)c([N+](=O)[O-])c1 has an IC50 of 117 µM.
Compound COc1ccc(/C=N/Nc2cc(C)nc3ccccc23)cc1 has an IC50 of 38.5 µM.
Oc1c(CN2CCN(c3ccc(F)cc3)CC2)cc(Cl)c2cccnc12 showed an IC50 of 49 µM.
In the case of CC[C@@H](C)[C@H](CNC)NC[C@@H](Cc1cccc2ccccc12)NCCc1cccc(C(F)(F)F)c1, the IC50 is reported as 33.2 µM.
With O=C(c1cccs1)c1no[n+]([O-])c1C(=O)c1cccs1 the IC50 was 33.7 µM.
In the case of Cc1cc(C(C)(C)CC(C)(C)C)ccc1OCCOCC[N+](C)(C)Cc1ccccc1, the IC50 is reported as 31.8 µM.
Oc1ccc(CNc2ccccc2F)c2cccnc12 was tested, and the IC50 was 96.5 µM.
For CC1CCC(C(C)C)C(OC(=O)Cn2c(COc3ccccc3)[n+](C)c3ccccc32)C1 (centres undefined), the IC50 was 72.3 µM.
CN(O)/C=c1/ccc2c(n1)C(=O)C=CC=2 showed an IC50 of 113 µM.
In the case of O=C1C=C(O)c2c(O)cc(O)c(O)c2C1=O, the IC50 is reported as 73.2 µM.
CCCCCCCCNC(C)C(O)c1ccc(SC(C)C)cc1 (centres undefined) was tested, and the IC50 was 75.2 µM.
Work on CCCCCCCCCC[n+]1cccc2c3ccccc3ccc21 yielded an IC50 of 23.1 µM.
In the case of Oc1ccc(CN2CCN(Cc3ccccc3)CC2)c2cccnc12, the IC50 is reported as 61.5 µM.
CCCCCCOC(=O)C[N+](C)(C)CCOC1CC2CCC1(C)C2(C)C (centres undefined) gave an IC50 of 40.1 µM.
For OCCN1CCN(Cc2cc(Cl)c3cccnc3c2O)CC1, the IC50 was 105 µM.
With O=C(CN1CCCC1)N/N=C/c1c(O)ccc2ccccc12 the IC50 was 56.4 µM.
Work on NC(N)=N/N=C/c1ccc(OCc2ccc(Cl)cc2)cc1 yielded an IC50 of 39.4 µM.
CC[n+]1c(/C=C/c2ccc(N(C)C)cc2)ccc2ccccc21 gave an IC50 of 54.8 µM.
Work on CCCCN(CCCC)C(=O)c1cn(CC)c2cc(N3CCN(C)CC3)c(F)cc2c1=O yielded an IC50 of 11.4 µM.
C/C(=N\Nc1nc2ccccc2[nH]1)c1ccccn1 gave an IC50 of 34.3 µM.
Compound Cc1ccccc1Nc1cc(C)c2c(O)cccc2n1 has an IC50 of 61.9 µM.
Compound Nc1cc2nsnc2cc1Br has an IC50 of 105 µM.
For NC(N)=NN=C1CCCCCCCCCCC1, the IC50 was 100 µM.
With CCn1cc(C(=O)O)c(=O)c2cc(F)c(N3CCN(C(=S)NC(=O)c4ccc(F)cc4)CC3)cc21 the IC50 was 46.5 µM.
COc1ccc(C(=O)Cn2nc(CNc3ccc(Br)cc3)[n+]3c2CCCCC3)cc1 gave an IC50 of 81.7 µM.
Oc1c(C(Nc2ccccn2)c2ccccn2)ccc2cccnc12 (centres undefined) gave an IC50 of 91.6 µM.
CCn1nc(C(=O)O)c(=O)c2cc3c(cc21)OCO3 gave an IC50 of 27.9 µM.
For Nc1nc(N2CCN(C/C=C/c3ccccc3)CC2)nc2ccccc12, the IC50 was 147 µM.
Cc1ccc(Nc2c3c(nc4ccccc24)CCC3)cc1 was tested, and the IC50 was 137 µM.
Compound C1=C(CCNCc2ccccc2)CCCC1 has an IC50 of 9.02 µM.
In the case of O=C(N[C@H](CO)[C@H](O)c1ccc([N+](=O)[O-])cc1)C(Cl)Cl, the IC50 is reported as 9.52 µM.
For CCN(CC)c1ccc(/C=N/Nc2nc3ccccc3[nH]2)c(O)c1, the IC50 was 134 µM.
COc1ccc(OCC(O)CNc2ccc(Br)cc2)cc1 (centres undefined) showed an IC50 of 37.2 µM.
CCn1cc(C(=O)O)c(=O)c2cc(F)c(N3CCNCC3)cc21 was tested, and the IC50 was 0.51 µM.
Compound CN(C)C1C(=O)C(C(N)=O)=C(O)C2(O)C(=O)C3=C(O)c4c(O)cccc4C(C)(O)C3CC12 (centres undefined) has an IC50 of 3.55 µM.
With Cc1conc1NC(c1cccs1)c1ccc2cccnc2c1O (centres undefined) the IC50 was 60.9 µM.
Work on Oc1cccc(/C=N/Nc2ccc(Cl)nn2)c1O yielded an IC50 of 138 µM.
For CCn1cc(C(=O)NCC(C)C)c(=O)c2cc(F)c(N3CCN(C)CC3)cc21, the IC50 was 38.2 µM.
O=CN/N=C/c1c(O)ccc2ccccc12 showed an IC50 of 71.9 µM.
C=CC1=C(C(=O)O)N2C(=O)[C@@H](NC(=O)/C(=N\O)c3csc(N)n3)[C@H]2SC1 (stereo in doubt) gave an IC50 of 25.2 µM.
With CN1CCN(C(c2ccccn2)c2cc(Cl)c3cccnc3c2O)CC1 (centres undefined) the IC50 was 95.8 µM.
Oc1c(I)cc(Cl)c2cccnc12 showed an IC50 of 17.9 µM.
